In US12258609B2, “Method for producing glycerides of hydroxycarboxylic acids” (KetoLipix Therapeutics GmbH, priority 2019, dated 2025):
Read-outs that look alike come from different tables or passages of the source.

Columns and labels:
[1] = system: pancreatin (Panzytrat® 40,000); experiment: Cleavage experiments with pancreatin in water, acid number over time; assay type: in vitro ADME, porcine; conditions: test repeated on individual glycerides, 50° C.
[2] = system: porcine pancreatic lipase type II (PPL type II); experiment: Cleavage experiments with and without porcine pancreatic lipase in FaSSIF medium; conditions: for with enzyme, 24 h, 35° C. / without enzyme 24 h, 35° C. / before splitting 0 h: the 14th table; for with enzyme, 24 h, 35° C.: FaSSIF medium pH 6.5, 1 wt.-% porcine pancreatic lipase type II; for without enzyme 24 h, 35° C.: FaSSIF medium pH 6.5, without enzyme; for before splitting 0 h: FaSSIF medium
Procedure: (§1) Further Cleavage with Bowl Medium: FaSSIF Medium • The FaSSIF medium is prepared according to the previous test according to the manufacturer's instructions. • The resulting sample is divided into two batches of equal size. 10 wt.-% of the ternary glyceride mixture of mono-, di- and triglycerides of 3-hydroxybutyric acids according to the invention is dissolved in each FaSSIF medium and left in a water bath at 35° C. for 24 hours.

[3] = system: Panzytrat® 40,000 (pancreatin); experiment: Cleavage experiments with and without Panzytrat 40,000 in FaSSGF medium (simulates the stomach, pH 1.6); conditions: for share in chromatogram, FaSSGF m.P. 24 h, 35° C. / share in chromatogram, FaSSGF o.P. 24 h, 35° C. / share in chromatogram, before splitting: the 11th table; for share in chromatogram, FaSSGF m.P. 24 h, 35° C. / share in chromatogram, FaSSGF o.P. 24 h, 35° C.: FaSSGF (stomach, pH = 1.6); for share in chromatogram, FaSSGF m.P. 24 h, 35° C.: with Panzytrat; for share in chromatogram, FaSSGF o.P. 24 h, 35° C.: without Panzytrat; for share in chromatogram, before splitting: starting mixture (crude high-boiling fraction) before splitting; for before splitting: the 12th table, FaSSGF medium; for change of content in FaSSGF medium: pH 1.6, 35° C., 24 hours, both with and without pancreatin
Procedure: (§2) For the cleavage experiments under near-body conditions two media are investigated: • FaSSGF, which simulates the stomach • FaSSIF, which simulates the intestinal tract
(§3) In addition, in some experiments porcine pancreas is added (Panzytrat® 40,000, Fa. Allergan).
(§4) Cleavage with Gastric Medium: FaSSGF Medium • A so-called FaSSGF medium is prepared according to the manufacturer's specifications from the commercially available corresponding composition (available from Biorelevant, Ltd., Great Britain). • The resulting sample is divided into two batches of equal size. 10 wt.-% of the ternary glyceride mixture based on mono-, di- and triglycerides of 3-hydroxybutyric acid, as described hereinabove, is dissolved in each FaSSGF medium and left in a water bath at 35° C. for 24 hours.

[4] = system: Panzytrat® 40,000 (pancreatin); experiment: Cleavage experiments with and without Panzytrat 40,000 in FaSSIF medium (simulates the intestinal tract, pH 6.5); conditions: for share in chromatogram, FaSSIF 0 h, Start / share in chromatogram, FaSSIF m.P. 24 h, 35° C. / share in chromatogram, FaSSIF o.P. 24 h, 35° C.: the 11th table, FaSSIF (bowel, pH = 6.5); for share in chromatogram, FaSSIF m.P. 24 h, 35° C.: with Panzytrat; for share in chromatogram, FaSSIF o.P. 24 h, 35° C.: without Panzytrat; for with Panzytrat 24 h, 35° C. / without Panzytrat 24 h, 35° C. / before splitting 0 h: the 13th table, in %; for with Panzytrat 24 h, 35° C.: FaSSIF medium pH 6.5, 1 wt.-% Panzytrat 40,000, 24 h; for without Panzytrat 24 h, 35° C.: FaSSIF medium pH 6.5, without Panzytrat; for before splitting 0 h: FaSSIF medium
Procedure: as §2
(§5) Both media are from the company Biorelevant®, Ltd. in Great Britain. In addition, in some experiments porcine pancreas is added (Panzytrat® 40,000, Fa. Allergan).
(§6) Cleavage with Bowl Medium: FaSSIF Medium • The FaSSIF medium is prepared according to the manufacturer's instructions (Fa. Biorelevant, Ltd., Great Britain). • The sample obtained is divided into two equally sized preparations. 10 wt.-% of the aforementioned glyceride mixture based on a mixture of mono-, di- and triglycerides of 3-hydroxybutyric acids is dissolved in each FaSSIF medium and left in a water bath at 35° C. for 24 hours.

[5] = system: Panzytrat® 40,000 (pancreatin)
Procedure: as §2, §3, §4

[6] = system: Panzytrat® 40,000 (pancreatin); remark: listed apart in the source
Procedure: as §2, §5, §6

[7] = system: porcine pancreatic lipase type II (PPL type II)
Procedure: as §1

SMILES	cleavage of the individual glycerides by pancreatin [1]	with enzyme, 24 h, 35° C. [2]	without enzyme 24 h, 35° C. [2]	before splitting 0 h [2]	share in chromatogram, FaSSGF m.P. 24 h, 35° C. [3] [% area]	share in chromatogram, FaSSGF o.P. 24 h, 35° C. [3] [% area]	share in chromatogram, before splitting [3] [% area]	before splitting [3] [% area]	share in chromatogram, FaSSIF 0 h, Start [4] [% area]	share in chromatogram, FaSSIF m.P. 24 h, 35° C. [4] [% area]	share in chromatogram, FaSSIF o.P. 24 h, 35° C. [4] [% area]	with Panzytrat 24 h, 35° C. [4]	without Panzytrat 24 h, 35° C. [4]	before splitting 0 h [4]	further results
CC(O)CC(=O)OCC(O)CO (centres unmarked) [3-BHB-MG, monoglyceride of 3-hydroxybutyric acid]	cleaved by pancreatin to the free 3-hydroxybutyric acid	15.98	12.26	13.52	18.41	21.09	18.28	18.28	13.52	14.34	12.26	14.34	12.26	13.52	–
CC(O)CC(=O)OCC(COC(=O)CC(C)O)OC(=O)CC(C)O (centres unmarked) [3-BHB-TG, triglyceride of 3-hydroxybutyric acid]	cleaved by pancreatin to the free 3-hydroxybutyric acid	13.38	16.79	16.40	10.12	7.55	16.08	16.08	16.40	12.83	16.79	12.83	16.79	16.40	change of content in FaSSIF medium with porcine pancreatic lipase ([2]; FaSSIF, pH 6.5, 35° C., 24 hours, 1 wt.-% PPL type II): slight decrease; change of content in FaSSGF medium [3]: significant decrease; change of content in FaSSIF medium ([4]; FaSSIF, pH 6.5, 35° C., 24 hours, with and without pancreatin): slight decrease
CC(O)CC(=O)OC(C)CC(=O)O (centres unmarked) [3-BHB-dimer-FS, dimer of 3-hydroxybutyric acid]	–	0.17	0.00	0.00	2.51	3.25	–	–	–	0.17	–	0.17	0.00	0.00	–
CC(O)CC(=O)OC(C)CC(=O)OCC(CO)OC(=O)CC(C)O (centres unmarked) [3-BHB-dimer-DG, diglyceride of the dimer of 3-hydroxybutyric acid]	–	7.07	7.61	7.56	4.22	3.14	6.62	6.62	7.56	7.02	7.61	7.02	7.61	7.56	–
CC(O)CC(=O)OC(C)CC(=O)OCC(O)CO (centres unmarked) [3-BHB-dimer-MG, monoglyceride of the dimer of 3-hydroxybutyric acid]	–	0.16	0.44	0.42	0.22	0.16	0.39	0.39	0.42	–	0.44	0.00	0.44	0.42	–
CC(O)CC(=O)OC(C)CC(=O)O (centres unmarked) [3-BHB dimer, dimer of 3-hydroxybutyrate]	–	–	–	–	–	–	–	–	–	–	–	–	–	–	before splitting [5]: 0.71 % area; share in chromatogram, FaSSGF m.P. 24 h, 35° C. [5]: 0.45 % area; share in chromatogram, FaSSGF o.P. 24 h, 35° C. [5]: 0.35 % area; share in chromatogram, before splitting [5]: 0.71 % area; before splitting 0 h [6]: 0.70; share in chromatogram, FaSSIF 0 h, Start [6]: 0.70 % area; share in chromatogram, FaSSIF m.P. 24 h, 35° C. [6]: 0.72 % area; share in chromatogram, FaSSIF o.P. 24 h, 35° C. [6]: 0.72 % area; with Panzytrat 24 h, 35° C. ([6]; pH 6.5): 0.72; without Panzytrat 24 h, 35° C. ([6]; pH 6.5): 0.72; before splitting 0 h [7]: 0.7%; with enzyme, 24 h, 35° C. ([7]; pH 6.5): 0.71%; without enzyme 24 h, 35° C. ([7]; pH 6.5): 0.72%
OCC(O)CO [glycerol]	–	–	–	–	–	–	–	–	0.07	0.07	0.05	0.07	0.05	0.07	before splitting ([5]; 0 h): 0.38 % area; share in chromatogram, before splitting ([5]; 0 h, 10 wt.-%, pH 1.6): 0.38 % area; share in chromatogram, FaSSGF o.P. 24 h, 35° C. ([5]; 24 h, 10 wt.-%, pH 1.6): 0.81 % area; share in chromatogram, FaSSGF m.P. 24 h, 35° C. ([5]; pig, 24 h, 10 wt.-%, pH 1.6): 0.51 % area; before splitting 0 h ([7]; 0 h, 10 wt.-%, pH 6.5): 0.07%; without enzyme 24 h, 35° C. ([7]; 24 h, 10 wt.-%, pH 6.5): 0.05%; with enzyme, 24 h, 35° C. ([7]; pig, 24 h, 10 wt.-%, pH 6.5): 0.08%
CC(O)CC(=O)OCC(CO)OC(=O)CC(C)O (centres unmarked) [3-BHB-DG, diglyceride of 3-hydroxybutyric acid]	cleaved by pancreatin to the free 3-hydroxybutyric acid	59.84	60.93	60.17	44.09	37.01	55.85	55.85	60.17	61.38	60.93	61.38	60.93	60.17	change of content in FaSSGF medium [3]: significant decrease
CCOC(=O)CC(C)O (centres unmarked) [3-BHB-ethyl, 3-hydroxybutyric acid ethyl ester]	–	–	–	–	–	–	–	–	0.16	0.20	0.18	0.20	0.18	0.16	before splitting ([5]; 0 h): 0.31 % area; share in chromatogram, before splitting ([5]; 0 h, 10 wt.-%, pH 1.6): 0.31 % area; share in chromatogram, FaSSGF o.P. 24 h, 35° C. ([5]; 24 h, 10 wt.-%, pH 1.6): 0.07 % area; share in chromatogram, FaSSGF m.P. 24 h, 35° C. ([5]; pig, 24 h, 10 wt.-%, pH 1.6): 0.11 % area; before splitting 0 h ([7]; 0 h, 10 wt.-%, pH 6.5): 0.16%; without enzyme 24 h, 35° C. ([7]; 24 h, 10 wt.-%, pH 6.5): 0.18%; with enzyme, 24 h, 35° C. ([7]; pig, 24 h, 10 wt.-%, pH 6.5): 0.12%
